The values that follow come from US7462615B2, “Inhibitors of cysteine proteases, the pharmaceutical compositions thereof and their therapeutic applications” (Hybrigenics SA, priority 2005, dated 2008).

“And” between values parts separate entries of the source, which are not always exact repeats. Equal values may be shown once.

In one assay the target is T1, USP7 (Homo sapiens, UniProt Q93009).
T1 construct: His tag (from vector pFastBac-HT) (N); made in house; host or cells: Sf9 or High Five insect cells (baculovirus)
The assay is described as follows: USP7 Activity Assay. The class given is biochemical. To be noted: 400 nM Ub-AMC; 152 pM enzyme; pre-incubated 30 minutes at 25° C., 60 minutes at 37° C.; sigmoidal fit; read-out: USP 7 (Inhibition of cysteine protease activities). From the text:
The cDNA encoding USP7 was obtained by PCR amplification from placenta mRNA. USP7 cDNA was subcloned by PCR into a baculovirus expression vector (pFastBac-HT; Invitrogen). A cDNA encoding a mutated USP7 was generated by mutagenic PCR. The corresponding protein encodes a cysteine to alanine substitution at residue 223. The sequences were ascertained by sequencing of the entire open reading frame. Bacmids encoding USP7 were generated following DH10bac transposition. The corresponding bacmids were transfected into insect cells (Sf9). Viruses were recovered from culture supernatant and amplified twice. Insect cells (Sf9 or High Five; Invitrogen) were infected for 72 hours. Total cell lysates were harvested and lyzed in lysis buffer (Tris HCl 50 mM pH7.6; 0.75% NP40; 500 mM NaCl; 10% glycerol; 1 mM DTT; 10 mM imidazole; Protease Inhibitor. Cocktail; AEBSF
20 μg.ml^−1; Aprotinin 10 μg.ml^−1). Proteins were affinity purified on metal affinity resins (Talon Metal affinity resin; BD Biosciences). Bound materials were extensively washed in wash buffer (50 mM Sodium Phosphate pH7.0; 300 mM NaCl; 10 mM imidazole; 0.5% Triton X-100; 10% glycerol) and eluted from the resin in 250 mM imidazole-containing wash buffer. Proteins were dialyzed in dialysis buffer (Tris HCl pH 7.6 20 mM; NaCl 200 mM; DTT 1 mM; EDTA 1 mM; 10% Glycerol). Proteins purifications were analyzed on 4-12% NuPAGE (Invitrogen).
USP7 was diluted in USP buffer (50 mM Tris HCl; 0.5 mM EDTA; 5 mM DTT; 0.01% Triton X-100; Bovine Serum Albumin 0.05 mg.ml^−1 pH7.6). Compounds stocks (100 mM) were stored at −20° C. in DMSO. Compounds were tested at the following final concentrations: 100 μM; 33.3 μM; 11.1 μM; 3.7 μM; 1.23 μM; 412 nM; 137 nM; 45.7 nM; 15.2 nM; 5 nM.
Reactions were performed as duplicates in Black LJL 96 well plates (HE microplates; Molecular Devices; 20 μl final reaction volume). The substrate concentration for USP7 was 400 nM Ub-AMC (Chem. Biol., 2003, 10, p. 837-846) (Boston Biochem). The concentrations of the enzyme (USP7) in specificity assays was 152 pM. The concentrations were determined in order to perform specificity assays under initial velocities at fixed substrate concentration. Compounds were pre-incubated with enzymes for 30 minutes at 25° C. Reactions were initiated by addition of substrate to the plates containing the enzymes (+/−compounds) diluted in assay buffer. Reactions were incubated for 60 minutes at 37° C. Reactions were stopped by adding acetic acid (100 mM final). Readings were performed on a Pherastar Fluorescent Reader (BMG). λ Emission 380 nm; λ Excitation=460 nm. Data (mean values +/−standard deviation) were analyzed as % of control (no compound) and plotted as percentage versus the Log of the compound concentration using GraphPad (Prism). Data were fitted to a sigmoidal model (variable slope).

The next assay has as its target T2, Caspase 3 (Homo sapiens, UniProt P42574).
T2 sequence (P42574 29-175 limits assumed): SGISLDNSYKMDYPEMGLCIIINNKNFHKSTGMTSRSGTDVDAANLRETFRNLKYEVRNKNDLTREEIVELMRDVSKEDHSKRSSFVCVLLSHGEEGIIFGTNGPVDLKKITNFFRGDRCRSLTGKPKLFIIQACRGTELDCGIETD
T2 sequence (P42574 176-277 limits assumed): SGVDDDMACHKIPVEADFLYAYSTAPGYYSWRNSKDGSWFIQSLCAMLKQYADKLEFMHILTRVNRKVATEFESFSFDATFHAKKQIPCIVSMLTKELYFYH
The assay is described as follows: Caspase 3 Activity Assay. To be noted: 500 nM Ac-DEVD-AMC; 3.2 nM enzyme; pre-incubated 30 minutes at 25° C., 60 minutes at 37° C.; sigmoidal fit; read-out: Caspase 3 (Inhibition of cysteine protease activities). The class given is biochemical. On the procedure: Caspase 3 was diluted in Caspase B buffer (100 mM Hepes pH 7.5; 10% sucrose; 0.1% CHAPS). Compounds stocks (100 mM) were stored at −20° C. in DMSO. Compounds were tested at the following final concentrations: 100 μM; 33.3 μM; 11.1 μM; 3.7 μM; 1.23 μM; 412 nM; 137 nM; 45.7 nM; 15.2 nM; 5 nM. Reactions were performed as duplicates in Black LJL 96 well plates (HE microplates; Molecular Devices; 20 μl final reaction volume). The substrate concentration for caspase 3 specificity assay was 500 nM (Ac-DEVD-AMC; Promega). The concentration of the enzyme (Caspase 3) in specificity assays was 3.2 nM. The concentrations were determined in order to perform specificity assays under initial velocities at fixed substrate concentration. Compounds were pre-incubated with enzymes for 30 minutes at 25° C. Reactions were initiated by addition of substrate to the plates containing the enzymes (+/− compounds) diluted in assay buffer. Reactions were incubated for 60 minutes at 37° C. Reactions were stopped by adding acetic acid (100 mM final) Readings were performed on a Pherastar Fluorescent Reader (BMG). δ Emission 380 nm; δ Excitation=460 nm. Data (mean values +/− standard deviation) were analyzed as % of control (no compound) and plotted as percentage versus the Log of the compound concentration using GraphPad (Prism). Data were fitted to a sigmoidal model (variable slope).

T1 sequence (Q93009 whole entry): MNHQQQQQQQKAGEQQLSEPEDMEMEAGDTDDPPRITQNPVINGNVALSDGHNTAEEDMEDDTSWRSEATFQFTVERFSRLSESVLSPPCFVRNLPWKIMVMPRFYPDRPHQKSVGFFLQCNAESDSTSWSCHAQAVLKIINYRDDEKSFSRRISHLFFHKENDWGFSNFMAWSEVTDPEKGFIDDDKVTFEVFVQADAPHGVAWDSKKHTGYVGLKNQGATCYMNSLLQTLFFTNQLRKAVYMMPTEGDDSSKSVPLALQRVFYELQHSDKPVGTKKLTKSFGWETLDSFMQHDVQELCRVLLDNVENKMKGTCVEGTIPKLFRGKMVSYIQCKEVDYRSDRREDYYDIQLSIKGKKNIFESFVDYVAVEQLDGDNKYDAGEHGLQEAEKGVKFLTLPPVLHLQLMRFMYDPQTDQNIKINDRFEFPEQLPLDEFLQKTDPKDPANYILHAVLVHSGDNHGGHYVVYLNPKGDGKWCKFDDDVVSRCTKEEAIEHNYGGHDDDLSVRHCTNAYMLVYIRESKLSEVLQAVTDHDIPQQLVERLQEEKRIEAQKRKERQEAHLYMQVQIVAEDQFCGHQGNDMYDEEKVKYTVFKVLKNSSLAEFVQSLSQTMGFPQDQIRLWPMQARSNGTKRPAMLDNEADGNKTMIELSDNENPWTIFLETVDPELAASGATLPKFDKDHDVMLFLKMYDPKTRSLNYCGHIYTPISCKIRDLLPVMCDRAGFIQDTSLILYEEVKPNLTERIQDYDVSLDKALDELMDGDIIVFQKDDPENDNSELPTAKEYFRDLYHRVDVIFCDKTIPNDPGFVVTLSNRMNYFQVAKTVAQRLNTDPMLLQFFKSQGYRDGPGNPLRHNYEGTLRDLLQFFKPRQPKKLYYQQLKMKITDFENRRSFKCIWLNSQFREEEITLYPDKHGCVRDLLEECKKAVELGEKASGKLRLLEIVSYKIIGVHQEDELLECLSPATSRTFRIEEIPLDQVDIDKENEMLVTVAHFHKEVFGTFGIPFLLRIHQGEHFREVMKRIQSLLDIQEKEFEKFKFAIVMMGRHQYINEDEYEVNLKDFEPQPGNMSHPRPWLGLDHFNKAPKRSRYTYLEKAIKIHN

With `COCc1nnc2nc3c(nn12)-c1ccccc1C3=O` [Example 1i/B, 3-Methoxymethyl-1,2,3a, 4,10-pentaaza-cyclopenta[b]fluoren-9-one], the IC50 was determined as 461 nM at USP7 and 556 nM on Caspase 3.
With `CCc1nnc2nc3c(nn12)C(=O)c1ccccc1-3` [Example 1d/A, 1-Ethyl-2,3,4,10,10a-pentaaza-cyclopenta[b]fluoren-9-one], the IC50 on USP7 stood at 16500 nM; on Caspase 3, 11600 nM.
For `CC(C)Cc1nnc2nc3c(nn12)C(=O)c1ccccc1-3` [Example 1g/A, 1-Isobutyl-2,3,4,10,10a-pentaaza-cyclopenta[b]fluoren-9-one], at Caspase 3, the IC50 is above 100000 nM.
As to `Cc1nnc2nc3c(nn12)-c1ccccc1C3=O` [Example 1b/B, 3-Methyl-1,2,3a,4,10-pentaaza-cyclopenta[b]fluoren-9-one], the IC50 amounted to 550 nM on USP7 and 424 nM on Caspase 3.
Take `O=C1c2ccccc2-c2nc3nnc(C4CC4)n3nc21` [Example 1j/A, 1-Cyclopropyl-2,3,4,10,10a-pentaaza-cyclopenta[b]fluoren-9-one]: at Caspase 3, the IC50 was 1900 nM.
Turning to `Cc1nnc2nc3c(nn12)-c1ccc(Cl)cc1C3=O` [Example 3/B, 7-Chloro-3-methyl-1,2,3a, 4,10-pentaaza-cyclopenta[b]fluoren-9-one], the figures for the IC50 on USP7 and on Caspase 3 were 522 nM and 743 nM, respectively.
For `Cc1nnc2nc3c(nn12)C(=O)c1ccccc1-3` [Example 1b/A, 1-Methyl-2,3,4,10,10a-pentaaza-cyclopenta[b]fluoren-9-one], in that order: 16700 nM and 4100 nM.
For `O=C1c2ccccc2-c2nn3c(C4CC4)nnc3nc21` [Example 1j/B, 3-Cyclopropyl-1,2,3a,4,10-pentaaza-cyclopenta[b]fluoren-9-one], in that order: 207 nM and 188 nM.
In the case of `O=C1c2ccccc2-c2nn3c(Cc4ccccc4)nnc3nc21` [Example 1k/B, 3-Benzyl-1,2,3a,4,10-pentaaza-cyclopenta[b]fluoren-9-one], the IC50 is 425 nM at USP7 and 164 nM at Caspase 3.
For `O=C1c2ccccc2-c2nc3nnc(Cc4ccccc4)n3nc21` [Example 1k/A, 1-Benzyl-2,3,4,10,10a-pentaaza-cyclopenta[b]fluoren-9-one], in that order: 3300 nM and 598 nM.
Regarding `CCCc1nnc2nc3c(nn12)-c1ccccc1C3=O` [Example 1e/B, 3-Propyl-1,2,3a, 4,10-pentaaza-cyclopenta[b]fluoren-9-one], the values for the IC50 at USP7 and on Caspase 3 were 662 nM and 727 nM, respectively.
For `O=C1c2ccccc2-c2nc3nnc(CO)n3nc21` [Example 1h/A, 1-Hydroxymethyl-2,3,4,10,10a-pentaaza-cyclopenta[b]fluoren-9-one], in that order: 9700 nM and 3900 nM.
`Nc1nnc2nc3c(nn12)-c1ccccc1C3=O` [Example 1c/B, 3-Amino-1,2,3a,4,10-pentaaza-cyclopenta[b]fluoren-9-one]: the IC50 on USP7 came to 700 nM.
Take `CCCCc1nnc2nc3c(nn12)-c1ccccc1C3=O` [Example 1f/B, 3-Butyl-1,2,3a,4,10-pentaaza-cyclopenta[b]fluoren-9-one]: the values for the IC50 at USP7 and at Caspase 3 were 604 nM and 475 nM, respectively.
Consider `CCCc1nnc2nc3c(nn12)C(=O)c1ccccc1-3` [Example 1e/A, 1-Propyl-2,3,4,10,10a-pentaaza-cyclopenta[b]fluoren-9-one], for which the IC50 at Caspase 3 is above 100000 nM.
Take `Cn1nc2nc3c(nc2n1)-c1ccccc1C3=O` [Example 4a, 2-Methyl-2H-1,2,3,4,10-pentaaza-cyclopenta[b]fluoren-9-one]: the IC50 at USP7 amounted to 51000 nM.
As for `O=C1c2ccccc2-c2nn3c(CO)nnc3nc21` [Example 1h/B], the IC50 at USP7 was found to be 1610 nM; on Caspase 3, 1020 nM.
For `CCCCc1nnc2nc3c(nn12)C(=O)c1ccccc1-3` [Example 1f/A, 1-Butyl-2,3,4,10,10a-pentaaza-cyclopenta[b]fluoren-9-one], in that order: 23000 nM and 4600 nM.
For the compound `COCc1nnc2nc3c(nn12)C(=O)c1ccccc1-3` [Example 1i/A, 1-Methoxymethyl-2,3,4,10,10a-pentaaza-cyclopenta[b]fluoren-9-one], the IC50 on Caspase 3 came out at 926 nM.
As for `CC(C)Cc1nnc2nc3c(nn12)-c1ccccc1C3=O` [Example 1g/B, 3-Isobutyl-1,2,3a,4,10-pentaaza-cyclopenta[b]fluoren-9-one], the results for the IC50 on USP7 and at Caspase 3 were 789 nM and 629 nM, respectively.
For “6-(7)-Chloro-1-methyl-2,3,4,10,10a-pentaaza-cyclopenta[b]fluoren-9-one [Example 3/A]”, in that order: 2800 nM and 1510 nM.
For `Nc1nnc2nc3c(nn12)C(=O)c1ccccc1-3` [Example 1c/A, 1-Amino-2,3,4,10,10a-pentaaza-cyclopenta[b]fluoren-9-one], in that order: 15300 nM and 3700 nM.
As to `CCc1nnc2nc3c(nn12)-c1ccccc1C3=O` [Example 1d/B, 3-Ethyl-1,2,3a, 4,10-pentaaza-cyclopenta[b]fluoran-9-one], the IC50 was 225 nM at USP7; 212 nM and 467 nM at Caspase 3.
